Laboratory results published in patent publication US9572820B2, “Methods of treating autophagy-associated disorders and related pharmaceutical compositions, diagnostics, screening techniques and kits” (priority 2011, dated 2017).

Experiments:
IL-1β = IL-1β secretion from LPS-pretreated BMMs (ELISA); assay type: cell-based, murine; conditions: nigericin, 100 nM bafilomycin A1, 1 h
Method: FIG. 1X3. induction of autophagy enhances IL-1β secretion. (A) Atg5fl/fl Cre^− and Atg^5fl/fl Cre^+ bone marrow-derived macrophages (BMMs), pretreated overnight with 100 ng/ml LPS, were stimulated for 1 h with the inflammasome agonist nigericin ([…]) with (Starvation; EBSS) or without (Full; full medium) autophagic induction. Cell culture supernatants were assayed for murine IL-1β by ELISA. Data represent mean values±s.d. (nX3); *Po0.05. (B) LPS-pretreated Atg5fl/fl Cre^− and Atg^5fl/fl Cre^+ BMMs were stimulated with […] nigericin for 1 h in OptiMEM and the release of active caspase-1 and IL-1β was determined by immunoblotting. (C) As in (A), assayed for IL-18. Data represent mean values±s.d. (nX3); *Po0.05. (D) LPS-pretreated BMMs were exposed to alum ([…]) for 1 h with or without autophagic induction by starvation. Secreted IL-1β was measured as in (A). Data represent mean values±s.d. (nX3); *Po0.05. (E) LPS-pretreated BMMs were exposed to silica ([…]) for 1 h with or without autophagic induction by starvation. Secreted IL-1β was measured as in (A). Data represent mean values±s.d. (nX3); *Po0.05. (F) BMMs were transfected with scramble (Scr) control siRNA or siRNAs against ASC and NLRP3. After 48 h following transfection, cells were treated overnight with LPS and subjected to nigericin ([…]) and starvation for 1 h. Data represent mean values±s.d. (nX3); *Po0.05. (G) Immunoblot analysis of ASC and NLRP3 knockdowns. (H) BMMs were transfected with scramble
FIG. 2X3 Autophagic pathway progression promotes secretion of inflammasome substrates. (A, B) LPS-pretreated BMMs were treated with […] nigericin (Nig) and 100 nM bafilomycin A1 (Baf) with (Starvation) or without (Full) autophagic induction for 1 h and secreted IL-1β (A) and IL-18 (B) were measured. Data represent mean values+s.d. (nX3); *Po0.05. (C) LPS-pretreated BMMs were treated with […] of silica and 100 nM bafilomycin A1 (Baf) with (Starvation) or without (Full) autophagic induction for 1 h and secreted IL-1β were measured. Data represent mean values±s.d. (nX3); *Po0.05. (D) Colocalization of cathepsin B with the basal autophagic machinery factor LC3 and IL-1b. Fluorescence; LC3 (green, Alexa488), IL-1β (red, Alexa568), and cathepsin B (blue, Alexa633). BMMs from GFP-LC3 knockin mice were treated with LPS and then analysed for immunofluorescence. (E) Colocalization line tracing analysis from images in (D). (F) LPS-pretreated BMMs were treated with […] nigericin and cathepsin B inhibitor CA-074 Me […] , with (Starvation) or without (Full) autophagic induction, for 1 h and secreted IL-1β was measured. […] (G) LPS-pretreated Atg^5fl/fl Cr^+ and Atg^5fl/fl Cre^− BMMs were stimulated with […] nigericin for 1 h in OptiMEM and release of cathepsin B was determined by immunoblotting. […]

BMM = experiment: Confocal quantification of cells positive for LC3 and IL-1α puncta; assay type: cell-based, murine; conditions: Atg5+ BMM, LPS+IFN-γ, 90 min EBSS
Method: (A,B) IL-1α (ELISA) released from LPS+IFN-γ stimulated Atg5^fl/fl LysM-Cre+ and Atg5^fl/fl LysM-Cre− BMM in the presence of 50 μg/ml rapamycin (Rap), 10 mM 3-MA, or 100 nM Bafilomycin A1 (Baf A1) after 12 h of stimulation. (C) IL-1α (ELISA) in culture supernatants of cells as in A, treated with calpain inhibitor, ALLN (100 μM). (D-F) Images and quantification of cells positive for LC3-only, IL-1α-only or LC3+IL-1α. Cells, wild type (Atg5+) BMM stimulated with LPS+IFN-γ and incubated for 90 min in EBSS in the absence (D, control) or presence (E, Baf A1) of bafilomycin A1. Cutoff for cells to be considered positive: >6 red or green puncta. Red arrowheads, IL-1α+ LC3− cells; green arrowheads, IL-1α− LC3+ cells; 10 μm.
For confocal microscopy, BMM were stained with mouse anti-GFP (Abeam, 10 μg/ml) to enhance LC3-GFP visualization, rabbit anti-caspase 1 (Santa Cruz Biotechnology), rabbit anti-calpain 1 (Cell Signaling Technology), or hamster anti-IL-1α (eBioscience) followed by secondary antibodies. Pearson's colocalization coefficients were derived using SLIDEBOOK 5.0 (Intelligent Imaging Innovations) applying the SLIDEBOOK 5 default algorithm command ‘AND’. All Pearson's coefficients were derived from three independent experiments with five fields or more per experiment, for a total of 15 fields contributing to the cumulative result.

## CO/C1=C\C(C)=C\[C@@H](C)[C@@H](O)[C@@H](C)C/C(C)=C/C=C/[C@H](OC)[C@@H]([C@@H](C)[C@@H](O)[C@H](C)[C@@]2(O)C[C@@H](O)[C@H](C)[C@@H](C(C)C)O2)OC1=O [bafilomycin A1]
IL-1β; basal autophagy only (full medium)
  IL-1β secretion: no change
IL-1β; starvation
  IL-1β secretion: decreased IL-1β secretion
BMM
  number of cells positive for both IL-1α and LC3: increased
